Where two headings read alike, the source gives them in different places.
Experiments:
Rabbits = conditions: rabbit, in vivo
Text: Then, erythema and edema formation at the application site was observed. […] The mean value of the sum of erythema and edema scores was used as a simple primary skin irritation index. […]

Mice [1] = test: Effect on scratching behavior induced by serotonin application in mice; assay type: in vivo, mouse; conditions: counted for 15 minutes
Description: To the cervical and dorsal area of male ICR mice (n=3 to 6) at the age of 4 to 6 weeks, 100 μl of a solution obtained by dissolving serotonin hydrochloride in ethanol at 0.1% (hereinafter referred to as serotonin) was applied, and the number of scratching behavior at the application site with the hind legs occurring immediately after the application was counted for 15 minutes after administration with a counter. Administration of a test compound was carried out by skin application, intravenous administration or oral administration. In the case of skin application, the test compound that was dissolved in ethanol was applied in an amount of 100 μl concurrently with serotonin. In the case of intravenous administration, the test compound that was dissolved in physiological saline was administered at a dose of 10 ml/kg at 5 minutes prior to the serotonin application. In the case of oral administration, the test compound that was dissolved in distilled water was administered at a dose of 10 ml/kg at 20 minutes prior to the serotonin application. The control group of each administration route was given the respective solvent, and the values of scratching behavior were compared between the control group and the test compound group.
The results obtained by skin application of the test compound are shown in Table 3; the results obtained by intravenous administration of the test compound are shown in Table 4; and the results obtained by oral administration of the test compound are shown in Table 5.

Mice [2] = test: Acute toxicity test in mice; assay type: in vivo, mouse; conditions: intravenous, observed for 2 hours
Text: Male ICR mice at the age of 4 to 6 weeks were used.

[3] = skin application, concentration 0.1% in ethanol, concurrently with serotonin
[4] = intravenous administration, dose 3 mg/kg, 5 minutes prior to serotonin
[5] = oral administration, dose 30 mg/kg, 20 minutes prior to serotonin

| Compound | Simple primary skin irritation index (Rabbits; female, Kbs: JW, 24 h) | Average number of scratching behavior (Mice [1]; [3]) | Change in behavior (Mice [2]; 10 mg/kg) | Average number of scratching behavior (Mice [1]; [4]) | Change in behavior (Mice [2]; 5 mg/kg) | Average number of scratching behavior (Mice [1]; [5]) | Change in behavior (Mice [2]; 20 mg/kg) | Simple primary skin irritation index (Rabbits) |
| --- | --- | --- | --- | --- | --- | --- | --- | --- |
| COCCNC(=O)c1nc(N[C@H]2CCCC[C@H]2NC(C)=N)c2cc(C)ccc2n1.Cl.Cl [Example 1, 4-{[(1S,2R)-2-(ethanimidoylamino)cyclohexyl]amino}-N-(2-methoxyethyl)-6-methylquinazolin-2-carboxamide dihydrochloride] | 0.3 | 57.8 | No obvious change |  |  |  |  |  |
| COC(C)(C)C(=N)N[C@@H]1CCCC[C@@H]1Nc1nc(C(=O)NCC(C)(C)C)nc2ccc(C)cc12.Cl.Cl [Example 19, N-(2,2-dimethylpropyl)-4-({(1S,2R)-2-[(2-methoxy-2-methylpropanimidoyl)amino]cyclohexyl}amino)-6-methylquinazolin-2-carboxamide dihydrochloride] | 0.4 | 69.2 |  |  |  |  |  |  |
| COCCCNC(=O)c1nc(N[C@H]2CCCC[C@H]2NC(=N)CCOC)c2cc(C)ccc2n1.Cl.Cl [Example 35, 4-({(1S,2R)-2-[(3-methoxypropanimidoyl)amino]cyclohexyl}amino)-N-(3-methoxypropyl)-6-methylquinazolin-2-carboxamide dihydrochloride] | 1.5 | 69.0 |  |  |  |  |  |  |
| Cc1ccc2nc(C(=O)NC(C)C)nc(N[C@H]3CCCC[C@H]3NC(=N)CCO)c2c1.Cl.Cl [Example 58, 4-({(1S,2R)-2-[(3-hydroxypropanimidoyl)amino]cyclohexyl}amino)-N-isopropyl-6-methylquinazolin-2-carboxamide dihydrochloride] | 0.4 | 55.5 | No obvious change |  |  |  |  |  |
| COCCCNC(=O)c1nc(N[C@H]2CCCC[C@H]2NC(=N)CCO)c2cc(C)ccc2n1.Cl.Cl [Example 59, 4-({(1S,2R)-2-[(3-hydroxypropanimidoyl)amino]cyclohexyl}amino)-N-(3-methoxypropyl)-6-methylquinazolin-2-carboxamide dihydrochloride] | 0.2 | 57.8 |  |  |  |  |  |  |
| Cc1ccc2nc(C(=O)NCC(C)C)nc(N[C@H]3CCCC[C@H]3NC(=N)C(C)(C)O)c2c1.Cl.Cl [Example 60, 4-({(1S,2R)-2-[(2-hydroxy-2-methylpropanimidoyl)amino]cyclohexyl}amino)-N-isobutyl-6-methylquinazolin-2-carboxamide dihydrochloride] | 1.0 |  |  | 64.0 | No obvious change |  |  |  |
| COCCNC(=O)c1nc(N[C@H]2CCCC[C@H]2NC(=N)COC)c2cc(C)ccc2n1.Cl.Cl [Example 91, 4-({(1S,2R)-2-[(2-methoxyethanimidoyl)amino]cyclohexyl}amino)-N-(2-methoxyethyl)-6-methylquinazolin-2-carboxamide dihydrochloride] | 0.5 | 70.5 |  |  |  |  |  |  |
| COCCCNC(=O)c1nc(N[C@H]2CCCC[C@H]2NC(C)=N)c2cc(C)ccc2n1.Cl.Cl [Example 92, 4-{[(1S,2R)-2-(ethanimidoylamino)cyclohexyl]amino}-N-(3-methoxypropyl)-6-methylquinazolin-2-carboxamide dihydrochloride] | 0.0 | 76.3 | No obvious change |  |  | 141.0 |  |  |
| CC(=N)N[C@@H]1CCCC[C@@H]1Nc1nc(C(=O)NC(C)C)nc2ccc(C)cc12.Cl.Cl [Example 101, 4-{[(1S,2R)-2-(ethanimidoylamino)cyclohexyl]amino}-N-isopropyl-6-methylquinazolin-2-carboxamide dihydrochloride] | 2.6 | 56.8 | No obvious change |  |  |  |  |  |
| COCCNC(=O)c1nc(N[C@H]2CCCC[C@H]2NC(N)=NOC)c2cc(C)ccc2n1.Cl.Cl [Example 208, 4-[((1S,2R)-2-{[amino(methoxyimino)methyl]amino}cyclohexyl)amino]-N-(2-methoxyethyl)-6-methylquinazolin-2-carboxamide dihydrochloride] | 0.2 | 81.0 |  | 53.8 |  |  | No obvious change |  |
| CON=C(N)N[C@@H]1CCCC[C@@H]1Nc1nc(C(=O)NCC(C)C)nc2ccc(C)cc12.Cl.Cl [Example 211, 4-[((1S,2R)-2-{[amino(methoxyimino)methyl]amino}cyclohexyl)amino]-N-isobutyl-6-methylquinazolin-2-carboxamide dihydrochloride] | 1.5 | 73.0 | No obvious change |  |  |  |  |  |
| Cc1ccc2nc(C(=O)NCC(C)C)nc(N[C@H]3CCCC[C@H]3NC(N)=NO)c2c1.Cl.Cl [Example 212, 4-[((1S,2R)-2-{[amino(hydroxyimino)methyl]amino}cyclohexyl)amino]-N-isobutyl-6-methylquinazolin-2-carboxamide dihydrochloride] | 0.8 | 49.8 | No obvious change |  |  |  |  |  |
| COCCCNC(=O)c1nc(N[C@H]2CCCC[C@H]2NC(N)=NOC)c2cc(C)ccc2n1.Cl.Cl [Example 239, 4-[((1S,2R)-2-{[amino(methoxyimino)methyl]amino}cyclohexyl)amino]-N-(3-methoxypropyl)-6-methylquinazolin-2-carboxamide dihydrochloride] | 1.0 | 55.8 | No obvious change |  |  | 88.6 |  |  |
| COCCCNC(=O)c1nc(N[C@H]2CCCC[C@H]2NC(N)=NO)c2cc(C)ccc2n1.Cl.Cl [Example 240, 4-[((1S,2R)-2-{[amino(hydroxyimino)methyl]amino}cyclohexyl)amino]-N-(3-methoxypropyl)-6-methylquinazolin-2-carboxamide dihydrochloride] | 1.0 | 65.3 | No obvious change |  |  | 95.2 |  |  |
| COCCNC(=O)c1nc(N[C@H]2CCCC[C@H]2NC(N)=NOC)c2cc(C)ccc2n1.COCCNC(=O)c1nc(N[C@H]2CCCC[C@H]2NC(N)=NOC)c2cc(C)ccc2n1.O=S(=O)(O)O [Example 248, 4-[((1S,2R)-2-{[amino(methoxyimino)methyl]amino}cyclohexyl)amino]-N-(2-methoxyethyl)-6-methylquinazolin-2-carboxamide 1/2 sulfate] |  |  |  |  |  |  |  | 0.8 |

— patent US8835446B2, “Quinazoline derivatives and pharmaceutical compositions thereof” (Nippon Shinyaku Co., Ltd., priority 2005, dated 2014)
